Data taken from patent US5972961A, “4-aryl-3-aminoquinoline-2-one derivatives as potassium channel modulators” (Bristol-Myers Squibb Company, priority 1998, dated 1999).

Assays:
[1] = tested on: cloned mammalian (mSlo or hSlo) BK channels; assay: BK-mediated outward current in Xenopus oocytes, two-electrode voltage clamp; format: cell-based; details: at 20 μM; expressed as percent increase over BK current in controls; IBTX-sensitive current; at least 5 oocytes
Protocol: The ability of compounds described in the present invention to open BK channels and increase whole-cell outward (K^+) BK-mediated currents was assessed under voltage-clamp conditions by determining their ability to increase cloned mammalian (mSlo or hSlo) BK-mediated outward current heterologously expressed in Xenopus oocytes [Butler, A., et al., Science, 261: 221-224 (1993); and Dworetzky, S. I., et al., Mol. Brain Res., 27: 189-193 (1994)]. The two BK constructs employed represent nearly structurally identical homologous proteins, and have proven to be pharmacologically identical in our tests. To isolate BK current from native (background, non-BK) current, the specific and potent BK channel-blocking toxin iberiotoxin (IBTX) [Galvez, A., et al., J. Biol. Chem., 265: 11083-11090 (1990)] was employed at a supramaximal concentration (50 nM). The relative contribution of BK channels current to total outward current was determined by subtraction of the current remaining in the presence of IBTX (non-BK current) from the current profiles obtained in all other experimental conditions (control, drug, and wash). […] All compounds were tested in at least 5 oocytes and are reported at the single concentration of 20 μM; the effect of the selected compounds of Formula I on BK current was expressed as the percent of control IBTX-sensitive current and is listed in Table I. Recordings were accomplished using standard two-electrode voltage clamp techniques [Stuhmer, W., et al., Methods in Enzymology, Vol. 207: 319-339 (1992)]; voltage-clamp protocols consisted of 500-750 ms duration step depolarizations from a holding potential of -60 mV to +140 mV in 20 mV steps. The experimental media (modified Barth's solution) consisted of (in mM): NaCl (88), NaHCO3 (2.4), KCl (1.0), HEPES (10), MgSO4 (0.82), Ca(NO3)2 (0.33), CaCl2 (0.41); pH 7.5.

[2] = tested on: cortical infarct volume after middle cerebral artery occlusion; assay: Permanent focal ischemia, middle cerebral artery occlusion (MCAO model); format: in vivo, spontaneously hypertensive rat; details: 0.001 mg/kg intravenous single bolus 30 minutes after MCAO; vs vehicle-treated control; infarct measured 24 hours after MCAO
Excerpt: To determine the ability of these compounds to reduce cell loss resulting from neuronal ischemia, a standard rodent model of permanent focal ischemia, involving occlusion of the middle cerebral artery in the spontaneously hypertensive rat (MCAO model) was employed [Tamura, A., et al., Journal of Cerebral Blood Flow and Metabolism, Volume 1, 53-60, (1981)].
Selected compounds have been evaluated in the focal stroke model involving permanent middle cerebral artery occlusion (MCAO) in the spontaneously hypertensive rat. This procedure results in a reliably large neocortical infarct volume that is measured by means of vital dye exclusion in serial slices through the brain 24 hours after MCAO. In the present test, compounds were administered using an intravenous route of administration at 30 minutes after occlusion.

| Compound | BK Current [1] | reduction of cortical infarct volume [2] |
| --- | --- | --- |
| Nc1c(-c2cc(Cl)ccc2O)c2cc(C(F)(F)F)ccc2[nH]c1=O [Example 2, 3-Amino-4-(5-chloro-2-hydroxyphenyl)-6-(trifluoromethyl)quinolin-2(1H)-one] | ++ (++ = > 150%) | about 14% |
| O=c1[nH]c2ccc(C(F)(F)F)cc2c(-c2cc(Cl)ccc2O)c1NS(=O)(=O)C(F)(F)F [Example 5, N-[4-(5-Chloro-2-hydroxyphenyl)-2-oxo-6-(trifluoromethyl)-1H-quinolin-3-yl]trifluoromethanesulfonamide] | ++ (++ = > 150%) | – |
| O=C(Nc1c(-c2cc(Cl)ccc2O)c2cc(C(F)(F)F)ccc2[nH]c1=O)c1ccccc1 [Example 10, N-[4-(5-Chloro-2-hydroxyphenyl)-2-oxo-6-(trifluoromethyl)-1H-quinolin-3-yl]benzamide] | + (+ = 100-150%) | – |
| Nc1c(-c2cc(Cl)ccc2O)c2ccccc2[nH]c1=O [Example 14, 3-Amino-4-(5-chloro-2-hydroxyphenyl)quinolin-2(1H)-one] | + (+ = 100-150%) | – |
| O=C(Nc1c(-c2cc(Cl)ccc2O)c2cc(C(F)(F)F)ccc2[nH]c1=O)OCc1ccccc1 [Example 17, N-[4-(5-Chloro-2-hydroxyphenyl)-2-oxo-6-(trifluoromethyl)-1H-quinolin-3-yl]aminocarboxylic acid, phenylmethyl ester] | ++ (++ = > 150%) | – |
| Nc1c(-c2cc(Cl)ccc2O)c2cc([N+](=O)[O-])ccc2[nH]c1=O [Example 19, 3-Amino-4-(5-chloro-2-hydroxyphenyl)-6-nitroquinolin-2(1H)-one] | ++ (++ = > 150%) | – |
| O=C(Nc1c(-c2cc(Cl)ccc2O)c2cc(C(F)(F)F)ccc2[nH]c1=O)c1ccc(O)cc1 [Example 29, N-[4-(5-Chloro-2-hydroxyphenyl)-2-oxo-6-(trifluoromethyl)-1H-quinolin-3-yl]-4-hydroxybenzamide] | + (+ = 100-150%) | – |
| COc1ccc(CC(=O)Nc2c(-c3cc(Cl)ccc3O)c3cc(C(F)(F)F)ccc3[nH]c2=O)cc1 [Example 32, N-[4-(5-Chloro-2-hydroxyphenyl)-2-oxo-6-(trifluoromethyl)-1H-quinolin-3-yl]-(4-methoxyphenyl)acetamide] | + (+ = 100-150%) | – |
| Nc1c(-c2cc(Cl)ccc2O)c2cc(Cl)c(C(F)(F)F)cc2[nH]c1=O [Example 43, 3-Amino-4-(5-chloro-2-hydroxyphenyl)-6-chloro-7-(trifluoromethyl)quinolin-2(1H)-one] | + (+ = 100-150%) | – |
| Nc1c(-c2cc(Cl)ccc2O)c2c(C(F)(F)F)c(Cl)ccc2[nH]c1=O [Example 44, 3-Amino-4-(5-chloro-2-hydroxyphenyl)-6-chloro-5-(trifluoromethyl)quinolin-2(1H)-one] | + (+ = 100-150%) | – |
| O=c1[nH]c2ccc(C(F)(F)F)cc2c(-c2cc(Cl)ccc2O)c1NS(=O)(=O)c1ccc([N+](=O)[O-])cc1 [Example 64, N-[4-(5-Chloro-2-hydroxyphenyl)-2-oxo-6-(trifluoromethyl)-1H-quinolin-3-yl]-4-nitrobenzene-sulfonamide] | ++ (++ = > 150%) | – |
| O=c1[nH]c2ccc(C(F)(F)F)cc2c(-c2cc(Cl)ccc2O)c1NS(=O)(=O)c1ccc(F)cc1 [Example 66, N-[4-(5-Chloro-2-hydroxyphenyl)-2-oxo-6-(trifluoromethyl)-1 H-quinolin-3-yl]-(4-fluorobenzene)sulfonamide] | ++ (++ = > 150%) | – |
| Cn1c(=O)c(N)c(-c2cc(Cl)ccc2O)c2cc(C(F)(F)F)ccc21 [Example 68, 3-Amino-4-(5-chloro-2-hydroxy-phenyl)-1-methyl-6-(trifluoro-methyl)quinolin-2(1H)-one] | + (+ = 100-150%) | – |
| Nc1c(-c2ccc(O)c(Cl)c2)c2cc(C(F)(F)F)ccc2[nH]c1=O [Example 71, 3-Amino-4-(3-chloro-4-hydroxy-phenyl)-6-(trifluoromethyl)quinolin-2(1H)-one] | + (+ = 100-150%) | – |
